Measured values: US8815305B2, “Composition containing a plant extract and process for producing same” (BASF Beauty Care Solutions France S.A.S., priority 2003, dated 2014)
Blank lines part the entries; values can stand above or below the molecule they belong to.

Legend:
[1] = target: T1, human leucocyte elastase (HLE) (Homo sapiens, UniProt P08246); settings: cited from earlier work
T1 sequence (P08246 30-267): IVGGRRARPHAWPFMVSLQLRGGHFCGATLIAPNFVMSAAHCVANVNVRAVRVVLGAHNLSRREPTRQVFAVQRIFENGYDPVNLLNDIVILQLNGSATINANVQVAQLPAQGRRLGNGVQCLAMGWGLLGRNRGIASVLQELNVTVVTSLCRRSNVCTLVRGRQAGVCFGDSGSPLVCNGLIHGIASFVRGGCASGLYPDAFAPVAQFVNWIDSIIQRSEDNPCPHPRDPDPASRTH

[2] = target: T1, human leucocyte elastase (HLE); settings: read-out: HLE inhibitory activity IC(50); cited from earlier work
bovine trypsin = target: T2, bovine trypsin (Bos taurus, UniProt P00760); settings: competitive or non-competitive; cited from earlier work
T2 sequence (P00760 24-246): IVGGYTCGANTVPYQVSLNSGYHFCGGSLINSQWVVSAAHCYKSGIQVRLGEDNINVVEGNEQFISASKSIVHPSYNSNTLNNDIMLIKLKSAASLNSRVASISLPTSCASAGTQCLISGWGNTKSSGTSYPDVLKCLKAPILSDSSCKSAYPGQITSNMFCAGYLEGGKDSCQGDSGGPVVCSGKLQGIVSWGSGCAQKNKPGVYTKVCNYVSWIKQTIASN

bovine chymotrypsin = bovine chymotrypsin (Bos taurus, UniProt P00766); settings: competitive or non-competitive; cited from earlier work
[3] = target: porcine pancreatic elastase (Sus scrofa, UniProt P00772); settings: cited from earlier work
leucine aminopeptidase [4] = settings: cited from earlier work
leucine aminopeptidase [5] = settings: cited from earlier work; remark: listed apart in the source
[6] = system: 5-lipoxygenase products in human neutrophils; settings: cited from earlier work
[7] = system: Croton oil induced oedema of the mouse ear; settings: cited from earlier work
[8] = system: skin chronic inflammation; settings: in vivo; cited from earlier work
human keratinocytes = assay: Cytophotoprotection of human keratinocytes against UV-B radiation; type: cell-based; settings: for Cell number, % against control / Released LDH, % against control / Released PGE2, % against control: UVB
Source text: UV-B irradiation (from 280 to 320 nm) of the human skin induces a cutaneous inflammation mainly by activation of an enzyme (phospholipase A2 or PLA2), which releases arachidonic acid from the cell membranes of the cells of the skin (V. A. De Leo, D. Hanson, I. B. Weinstein and L. C. Harber—Ultraviolet radiation stimulates the release of arachidonic acid from mammalian cells in culture—Photochemistry and Photobiology (1985) volume 41N°1 pages 51-56). Then other specific enzymes (so called cyclo-oxygenases) transform arachidonic acid in active components called prostaglandines (or PG) which are secreted out of the cells. The fixation of certain prostaglandins (PGE2) on specific skin receptors is followed by redness and swelling as after a sunburn. On cultured human cells, these UV-B effects on cell membranes are associated with a release in the supernatant medium of a cytoplasmic enzyme, the Lactate Dehydrogenase or LDH (B. Bonnekoh, B. Farkas, J. Geisel and G. Mahrle—Lactate dehydrogenase release as an indicator of dithranol-induced membrane injury in cultured human keratinocytes. Dermatological research (1990) volume 282, pages 325-331).
Expressed in keywords, the experiments were carried out as follows: • Inoculation of human keratinocytes within growth medium (standard medium with fetal calf serum (FCS) • Incubation 3 days at 37° C., CO2=5% • Exchange of growth medium with balanced salt solution containing ingredient to be tested • Irradiation of keratinocytes by UV-B: 50 mJ/cm^2 (DUKE GL40E lamp) (A DUKE GL40E lamp is a certain type of marketed sunlamp well known to the skilled artisan) • Incubation 1 day at 37° C., CO2=5% • Numeration of adherent cells after trypsination (trypsination is a process based on the use of the enzyme trypsine which is a protease allowing the retrieval of cell from the support in order to seed the cells into a bigger flask and therefore to expand the cell culture) • Recovery of supernatant medium for spectrophotometric determination of the activity of LDH, and PGE2 by ELISA method

elastase from pancreas = elastase from pancreas (Sus scrofa, UniProt P00772); assay: Elastase inhibition, Elastin-Congo red as substrate; type: biochemical; settings: 30 minutes at room temperature, Elastin-Congo red
Description: This test was carried out with an elastase from pancreas on Elastin labelled with Congo red. The time of incubation was 30 minutes at room temperature and the optical density of released Congo red was recorded after centrifugation at a wavelength of 520 nm. al-antitrypsine was used as positive reference.
The following table summarizes the results expressed as EC 50 in % w/v. (EC 50 in % w/v is the concentration in % w/v which reduces the enzymatic activity by 50%.)

human fibroblasts = assay: Cytophotoprotection of human fibroblasts against UV-A radiation; type: cell-based
Description: The cytoprotection against UV-A radiation was evaluated by a test on human fibroblasts because UV-A radiation penetrates through the epidermis until the derma where it induces oxidative stress (DALLE CARBONARE M, PATHAK M A; Skin photosensitising agents and the role of reactive oxygen species in photoaging; JOURNAL OF PHOTOCHEMISTRY & PHOTOBIOLOGY, 1992, 14, 1-2, pages 105-124. This oxidative stress was evaluated in vitro by measuring of the level of released MDA (malonaldehyde) and of intracellular GSH (reduced glutathione) (Morliere P., Moisan A., Santus R., Huppe G., Mazière J. C., Dubertret L.: UV-A induced lipid peroxydation in cultured human fibroblasts. Biochim. Biophys. Acta, 1084, 3, pages 261-269 (1991)).
Expressed in keywords, the experiments were carried out as follows: • Inoculation of human fibroblasts within a growth medium (standard medium with foetal calf serum (FCS) • Incubation 3 days at 37° C., CO2=5% • Exchange of growth medium with balanced salt solution • Irradiation of fibroblasts by UV-A: 20 J/cm^2 (black light TFWN lamp) (A TFWN lamp is a certain type of marketed sunlamp well known to the skilled artisan) • Exchange of growth medium with standard medium without FCS but containing ingredient to be tested • Incubation 3 days at 37° C., CO2=5% • Recovery of supernatant medium for spectrophotometric determination of the malonaldialdehde (or MDA) rate • Cells number determined by evaluation of the levels of cellular proteins (Bradford's method) and the rate of cellular GSH was evaluated according to the method of Hissin

Chain of porcine pancreatic elastase (P00772 27-266): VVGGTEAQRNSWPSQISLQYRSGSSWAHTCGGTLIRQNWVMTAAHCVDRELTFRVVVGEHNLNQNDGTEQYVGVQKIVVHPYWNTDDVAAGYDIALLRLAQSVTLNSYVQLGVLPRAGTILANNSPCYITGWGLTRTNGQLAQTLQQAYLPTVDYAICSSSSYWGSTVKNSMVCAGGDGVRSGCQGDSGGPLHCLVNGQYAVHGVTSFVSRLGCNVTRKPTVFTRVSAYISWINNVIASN
Chain of elastase from pancreas (P00772 27-266): as above

Molecule: CC1(C)[C@@H](O)CC[C@]2(C)[C@H]3C(=O)C=C4[C@@H]5C[C@@](C)(C(=O)O)CC[C@]5(C)CC[C@@]4(C)[C@]3(C)CC[C@@H]12 [18 beta-glycyrrhetic acid]
interaction with the ursolic acid binding site of HLE [1]: can also interact with this binding site

Molecule: C=C(C)[C@@H]1CC[C@]2(C)CC[C@]3(C)[C@H](CC[C@@H]4[C@@]5(C)CC[C@H](O)C(C)(C)[C@@H]5CC[C@]43C)[C@@H]12 [lupeol]
IC50 [2]: 1.9 µM
Ki (bovine trypsin): 22 µM
Ki (bovine chymotrypsin): 8 µM
inhibition of porcine pancreatic elastase [3]: ineffective or very weak
inhibition of Lucilia cuprina leucine aminopeptidase (leucine aminopeptidase [4]): ineffective or very weak
inhibition of Helicoverpa punctigera leucine aminopeptidase (leucine aminopeptidase [5]): ineffective or very weak

Molecule: CCCCCC=CCC=CCCCCCCCC(=O)OC1CCC2(C)C(CCC3(C)C2CC=C2C4C(C)C(C)CCC4(C)CCC23C)C1(C)C (stereo not drawn) [alpha-amyrin linoleate]
Ki (bovine trypsin): 16 µM
Ki (bovine chymotrypsin): 28 µM

Molecule: CC(=O)O[C@H]1CC[C@]2(C)[C@H]3CC=C4[C@@H]5[C@@H](C)[C@H](C)CC[C@]5(C)CC[C@@]4(C)[C@]3(C)CC[C@H]2C1(C)C [alpha-amyrin acetate]
5-HETE synthesis [6]: reduced
LTB4 synthesis [6]: without effect

Molecule: faradiol-3-myristic acid ester
anti-oedematous activity [7]: nearly the same dose dependent anti-oedematous activity

Molecule: C=C(C)[C@@H]1CC[C@]2(C)CC[C@]3(C)[C@H](CC[C@@H]4[C@@]5(C)CC[C@H](OC(=O)CCCCCCCCCCCCCCC)C(C)(C)[C@@H]5CC[C@]43C)[C@@H]12 [lupeol palmitate]
Ki (bovine trypsin): 10 µM

Molecule: C[C@H]1C(=O)CC[C@@H]2[C@]1(C)CC[C@H]1[C@@]2(C)CC[C@@]2(C)[C@@H]3CC(C)(C)CC[C@]3(CO)CC[C@]12C [canophyllol]
IC50 [2]: 2.5 µM

Molecule: CC(=O)O[C@H]1CC[C@]2(C)[C@H]3CC=C4[C@@H]5CC(C)(C)CC[C@]5(C)CC[C@@]4(C)[C@]3(C)CC[C@H]2C1(C)C [beta-amyrin acetate]
5-HETE synthesis [6]: reduced
LTB4 synthesis [6]: without effect

Molecule: CCCCCCCCCCCCCCCC(=O)OC1CCC2(C)C(CCC3(C)C2CCC2C4C(C)C(C)=CCC4(C)C(O)CC23C)C1(C)C (stereo not drawn) [faradiol-3-palmitic acid ester]
anti-oedematous activity [7]: nearly the same dose dependent anti-oedematous activity

Molecule: C[C@H]1[C@H](C)CC[C@]2(C(=O)O)CC[C@]3(C)C(=CC[C@@H]4[C@@]5(C)CC[C@H](O)C(C)(C)[C@@H]5CC[C@]43C)[C@H]12 [ursolic acid]
IC50 [2]: 4.4 µM
Ki ([1]; hydrolysis of peptide substrates in phosphate-buffered saline, read-out: inhibition constant, HLE): 4 to 6 µM
activity on chronic dermal inflammation [8]: significantly effective

Molecule: COc1ccc2c(c1)c(CC(=O)O)c(C)n2C(=O)c1ccc(Cl)cc1 [Indomethacine, Indomethacin]
UV toxic effects on the number of viable cells (cell number and released LDH) (human keratinocytes): moderately reduced
release of inflammatory mediators such as PGE2 (human keratinocytes): drastically reduced
Cell number, % against control (human keratinocytes): 34%
Released LDH, % against control (human keratinocytes): 77%
Released PGE2, % against control (human keratinocytes): 0%

Molecule: CC1=CC[C@@]2(C)[C@H]([C@@H]1C)[C@H]1CC[C@@H]3[C@@]4(C)CC[C@H](O)C(C)(C)[C@@H]4CC[C@@]3(C)[C@]1(C)C[C@@H]2O [faradiol]
anti-oedematous activity [7]: more active than its esters and than psi-taraxasterol
anti-oedematous effect compared with indomethacin ([7]; equimolar dose): same effect

Elastase EC 50 (concentration which reduces the enzymatic activity by 50%) (elastase from pancreas): 0.03% w/v
Molecule: A1 anti trypsine: positive reference of the elastase test

Molecule: Tocopherol
protection of human fibroblasts from toxic UVA effects (human fibroblasts): strongly protected
GSH/protein, % against control (human fibroblasts; UV-A 20 J/cm^2, dose 0.0003%): 89%
Released MDA, % against control (human fibroblasts; UV-A 20 J/cm^2, dose 0.0003%): 23%
cell's protein, % against control (human fibroblasts; UV-A 20 J/cm^2, dose 0.0003%): 106%

Molecule: CC1=CCC2(C)CCC3(C)C(CCC4C5(C)CCC(O)C(C)(C)C5CCC43C)C2C1C (stereo not drawn) [psi-taraxasterol]
anti-oedematous activity [7]: slightly lower effect

Molecule: C=C(C)[C@@H]1CC[C@]2(C)CC[C@]3(C)C(CC[C@@H]4[C@@]5(C)CC[C@H](OC(=O)CCCCCCC/C=C/C/C=C/CCCCC)C(C)(C)[C@@H]5CC[C@]43C)[C@@H]12 (stereo partly drawn) [Lupeol linoleate]
Ki (bovine trypsin): 7 µM

Molecule: C[C@H]1[C@H](C)CC[C@]2(C)CC[C@]3(C)C(=CC[C@@H]4[C@@]5(C)CC[C@H](O)C(C)(C)[C@@H]5CC[C@]43C)[C@H]12 [alpha-amyrin]
Ki (bovine trypsin): 29 µM
Ki (bovine chymotrypsin): 18 µM
inhibition of porcine pancreatic elastase [3]: ineffective or very weak
inhibition of Lucilia cuprina leucine aminopeptidase (leucine aminopeptidase [4]): ineffective or very weak
inhibition of Helicoverpa punctigera leucine aminopeptidase (leucine aminopeptidase [5]): ineffective or very weak

Molecule: CC(=O)Oc1ccccc1C(=O)O [Aspirin]
UV toxic effects on the number of viable cells (cell number and released LDH) (human keratinocytes): distinctly reduced
release of inflammatory mediators such as PGE2 (human keratinocytes): distinctly reduced
Cell number, % against control (human keratinocytes; dose 0.0003%): 67%
Released LDH, % against control (human keratinocytes; dose 0.0003%): 13%
Released PGE2, % against control (human keratinocytes; dose 0.0003%): 0%

Molecule: CC1(C)CC[C@]2(C(=O)O)CC[C@]3(C)C(=CC[C@@H]4[C@@]5(C)CC[C@H](O)[C@@](C)(CO)[C@@H]5CC[C@]43C)[C@@H]2C1 [hederagenin]
interaction with the ursolic acid binding site of HLE [1]: can also interact with this binding site

Molecule: CC1(C)CC[C@]2(C)CC[C@]3(C)C(=CC[C@@H]4[C@@]5(C)CC[C@H](O)C(C)(C)[C@@H]5CC[C@]43C)[C@@H]2C1 [beta-amyrin]
5-HETE synthesis [6]: reduced
LTB4 synthesis [6]: without effect

Molecule: CCCCCCCCCCCCCCCC(=O)O[C@H]1CC[C@]2(C)[C@H]3CC=C4[C@@H]5[C@@H](C)[C@H](C)CC[C@@]5(C)CC[C@@]4(C)[C@]3(C)CC[C@H]2C1(C)C [alpha-Amyrin palmitate]
Ki (bovine chymotrypsin): 6 µM
